IC50, neuroprotective effect and overt toxic effects data for three molecules are collected here from patent US5098925A, “Spiro-dihydroisoindole compounds” (ICI Americas Inc., priority 1990, dated 1992).

One may read the IC50 as the concentration at which inhibition is half-maximal.

Data set [1] has as its target phencyclidine (PCP) receptor of the NMDA receptor complex. As to the kind of experiment: [3H]-TCP binding (displacement of specific [3H]TCP binding). Conditions: [3H]-TCP 2.5 nM; rat cortex/hippocampus synaptic membranes; 30 min, 37° C., pH 7.7; read-out: IC50 value, 50% inhibition of total specific [3H]TCP binding. Set-up: species or system Sprague-Dawley rats. The source says: The actions of compounds of formula I as an antagonist at the phencyclidine (PCP) receptor of the NMDA receptor complex can be shown using known in vitro tests, for example that described in Vignon et al., Brain Research, 280, 194-197 (1983). Vignon et al. disclose that tritiated N-(1-[2-thienyl]cyclohexyl)-3,4-[^3 H]-piperidine (also abbreviated as [^3 H]-TCP) binds to PCP binding sites (e.g. in rat brains) more strongly than PCP itself. […] [^3 H]-TCP thus provides a useful tool for measuring the binding affinities of compounds which bind to PCP receptors such as the PCP site in the NMDA receptor complex.
Specifically when it is desired to measure the binding affinity of a compound of formula I, a source of (brain) NMDA receptors is generated by preparing neuronal synaptic membranes from adult Sprague-Dawley rats. In brief, freshly dissected cortices and hippocampi were homogenized in 0.32 M sucrose (100 mg/ml). […]
The procedure for [^3 H]-TCP binding is adapted from Vignon et al. (1983). […] Non-specific binding is determined with 100 μM MK-801, a […] well known and characterized in the art as set forth for example, in European Patent Application 0 230 370, published July 29, 1987. […] Radioactivity is measured by liquid scintillation counting. The specific activity of the [^3 H]TCP is used to convert the radioactivity measured to concentration [^3 H]TCP bound. […]

The subject of data set [2] is neuronal damage in the hippocampus. As to the kind of experiment: gerbil ischemic model (bilateral carotid occlusion, neuronal damage in the hippocampus). The format is in vivo, Mongolian gerbils. Conditions: ip dose of 60 mg/kg. How it is done: Typically an animal is rendered ischemic, for example, for transient occlusion of the carotid artery. A test compound is then administered to said ischemic animal at or about the time of the ischemica event. The ability of the test compound to reduce or prevent neurological degeneration may then be assessed, for example, by sacrificing the animal, followed by conventional histological examination of suitable brain tissue. For example, the following is a description of a suitable test in vivo using the gerbil model.
When testing in vivo using the gerbil ischemic model, adult female Mongolian gerbils (50-70 g) are anesthetized with 2 to 3% halothane. The bilateral common carotid arteries at the neck are exposed and occluded with microaneurysm clips. After 10 min (unless specified), the clips are removed and the blood flow through the carotid arteries is restored and the skin is sutured. […] Gross behavioral observations along with motor activity are recorded for 2 hr on the first (24 hr) day following the occlusion. […]
Sections (7 micron) are evaluated from each brain. […] The average brain damage rating score for each group is recorded, and the damage scores of the drug treated group are compared to the vehicle-treated group using Wilcoxcon ranks sum test.

As to `COc1cccc2c1CCC21NCc2ccccc21` (stereo not shown) [Example 18, 4-Methoxyspiro[indan-1,1'-(1,3-dihydroisoindole)]], in data set [1], the IC50 was determined as 5000 nM. In the case of `c1ccc2c(c1)CNC21CCCc2sccc21` (stereo not shown) [Example 20, Spiro[4,5,6,7-tetrahydrobenzothiophene-4,1'-(1,3-dihydroisoindole)]], in data set [1], the IC50 amounted to 600 nM. For the molecule `CN1Cc2ccccc2C12CCCc1sccc12` (stereo not shown) [Example 21, 2'-Methylspiro[4,5,6,7-tetrahydrobenzothiophene-4,1'-(1,3-dihydroisoindole)]], in data set [2], the neuroprotective effect result was “significant neuroprotective effect” and the overt toxic effects entry is given as “without any overt toxic effects”.
